Data reported in patent US6372748B1, “Fungicide mixtures based on pyridine amides and fenarimol” (BASF Aktiengesellschaft, priority 1997, dated 2002).

System: Puccinia recondita
Test: Curative activity against Puccinia recondita on wheat (wheat leaf rust)
Assay type: in vivo, Puccinia recondita on wheat seedlings of the variety Kanzler
Settings: sprayed 1 day after inoculation, rated after 7 days
Procedure: The active ingredients, separately or together, are formulated as a 10% emulsion in a mixture of 63% by weight of cyclohexanone and 27% by weight of emulsifier, and diluted with water to the desired concentration.
Evaluation is carried out by determining the infected leaf areas in percent. These percentages are converted into efficacies. The efficacy (w) is calculated as follows using Abbot's formula: […]
α corresponds to the fungal infection of the treated plants in % and β corresponds to the fungal infection of the untreated (control) plants in % An efficacy of 0 means that the infection level of the treated plants corresponds to that of the untreated control plants; an efficacy of 100 means that the treated plants were not infected.
The expected efficacies of the mixtures of the active ingredients were determined using Colby's formula [R. S. Colby, Weeds 15, 20-22 (1967)] and compared with the observed efficacies.
Colby's formula: E=x+y−x·y/100
E expected efficacy, expressed in % of the untreated control, when using the mixture of the active ingredients A and B at the concentrations a and b x efficacy, expressed in % of the untreated control, when using active ingredient A at a concentration of a y efficacy, expressed in % of the untreated control, when using active ingredient B at a concentration of b Leaves of potted wheat seedlings of the variety “Kanzler” were dusted with spores of leaf rust (Puccinia recondite). Thereafter, the pots were kept for 24 hours in a chamber of high atmospheric humidity (90 to 95%) and 20 to 22° C. During this time, the spores germinated and the germinal tubes penetrated into the leaf tissue. The next day, the infected plants were sprayed to runoff point with an aqeuous formulation of active ingredient prepared from a stock solution consisting of 10% of active ingredient, 63% of cyclohexanone and 27% of emulsifier. After the spray coating had dried on, the test plants were cultivated in a greenhouse at from 20 to 22° C. and from 65 to 70% of relative atmospheric humidity for 7 days. Thereafter, the extent of rust fungus development on the leaves was determined.

[1] = 50 ppm active ingredient in the spray liquor
[2] = 100 ppm active ingredient in the spray liquor

SMILES | Efficacy in % of the untreated control (10 ppm active ingredient in the spray liquor) [%] | Efficacy in % of the untreated control (20 ppm active ingredient in the spray liquor) [%] | Efficacy in % of the untreated control [1] [%] | Efficacy in % of the untreated control [2] [%] | Efficacy in % of the untreated control (200 ppm active ingredient in the spray liquor) [%]
OC(c1ccc(Cl)cc1)(c1cncnc1)c1ccccc1Cl (racemic) [Compound II, (±)-(2-Chlorophenyl)(4-chlorophenyl)(pyrimidin-5-yl)methanol, reference compound] | 10 | 20 | – | – | –
O=C(Nc1ccccc1-c1ccc(F)cc1)c1cccnc1Cl [Compound I.1] | – | – | 0 | 0 | 0
O=C(Nc1ccccc1-c1ccc(Cl)cc1)c1cccnc1Cl [Compound I.2] | – | – | 0 | 30 | –
